# Test results as given in patent US20260137703A1, “2-AMINO-PYRIDO[2,3-D]PYRIMIDIN-7(8H)-ONE AND 7-AMINO-1-PYRIMIDO[4,5-D]PYRIMIDIN-2(1 H)-ONE DERIVATIVES AS EGFR INHIBITORS FOR THE TREATMENT OF CANCER” (Cancer Research Technology Limited, priority 2022, published 2026).
# How the values were obtained:
# [1] = biological target: T1, Phospho-EGFR (Tyr1068) in A431 cells (Homo sapiens, UniProt P00533); experiment: HTRF pEGFR/total EGFR in A431 cells with EGF stimulation; format: cell-based; details: ratio pEGFR/total EGFR, compound 2.5 hours then 100 ng/ml EGF 30 mins
# T1 construct: endogenous in cells; host or cells: A431
# T1 sequence (P00533 25-1210): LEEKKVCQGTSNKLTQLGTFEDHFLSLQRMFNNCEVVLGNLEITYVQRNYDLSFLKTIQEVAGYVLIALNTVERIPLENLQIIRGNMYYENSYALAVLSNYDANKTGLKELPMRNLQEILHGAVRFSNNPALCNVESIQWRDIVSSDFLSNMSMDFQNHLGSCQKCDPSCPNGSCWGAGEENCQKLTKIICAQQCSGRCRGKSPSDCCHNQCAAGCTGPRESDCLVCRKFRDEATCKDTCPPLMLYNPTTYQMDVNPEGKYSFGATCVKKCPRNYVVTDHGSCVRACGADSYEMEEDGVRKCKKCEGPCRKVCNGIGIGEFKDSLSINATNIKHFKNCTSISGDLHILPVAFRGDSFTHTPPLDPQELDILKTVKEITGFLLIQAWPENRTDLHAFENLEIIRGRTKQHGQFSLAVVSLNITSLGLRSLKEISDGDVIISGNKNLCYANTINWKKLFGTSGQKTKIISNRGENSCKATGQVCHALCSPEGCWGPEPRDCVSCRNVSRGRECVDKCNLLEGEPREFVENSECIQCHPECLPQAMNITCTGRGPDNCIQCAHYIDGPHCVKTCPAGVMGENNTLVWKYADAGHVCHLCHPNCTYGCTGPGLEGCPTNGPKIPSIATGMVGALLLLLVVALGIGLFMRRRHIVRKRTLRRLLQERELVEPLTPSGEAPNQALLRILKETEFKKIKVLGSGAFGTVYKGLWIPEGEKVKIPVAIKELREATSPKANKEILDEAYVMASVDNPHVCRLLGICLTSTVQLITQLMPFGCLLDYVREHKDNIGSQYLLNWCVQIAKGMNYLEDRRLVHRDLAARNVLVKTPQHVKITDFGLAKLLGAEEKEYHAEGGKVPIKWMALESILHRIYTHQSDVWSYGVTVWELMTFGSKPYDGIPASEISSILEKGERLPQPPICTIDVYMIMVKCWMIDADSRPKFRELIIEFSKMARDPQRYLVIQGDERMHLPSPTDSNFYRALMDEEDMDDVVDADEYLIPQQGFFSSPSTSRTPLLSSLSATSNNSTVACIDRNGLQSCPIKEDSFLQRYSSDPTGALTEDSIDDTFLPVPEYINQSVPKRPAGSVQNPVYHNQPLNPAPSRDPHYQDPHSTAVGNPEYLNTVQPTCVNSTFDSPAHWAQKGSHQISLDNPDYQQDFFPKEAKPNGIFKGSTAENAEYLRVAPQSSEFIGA
# In short: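 Values are pEGFR(Tyr1068)/total EGFR HTRF ratios (665/620 nm) given as percent of the 0 μM control. Adhered A431 cells (20,000 per well, 24 h) had 2.5 h compound pretreatment in 0.1% DMSO, then 30 min of 100 ng/ml EGF before lysis.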
# [2] = biological target: CtermHisTag-mEGFR Wild type (Homo sapiens, UniProt P00533); experiment: biochemical
# Sequence of CtermHisTag-mEGFR Wild type (P00533 whole entry): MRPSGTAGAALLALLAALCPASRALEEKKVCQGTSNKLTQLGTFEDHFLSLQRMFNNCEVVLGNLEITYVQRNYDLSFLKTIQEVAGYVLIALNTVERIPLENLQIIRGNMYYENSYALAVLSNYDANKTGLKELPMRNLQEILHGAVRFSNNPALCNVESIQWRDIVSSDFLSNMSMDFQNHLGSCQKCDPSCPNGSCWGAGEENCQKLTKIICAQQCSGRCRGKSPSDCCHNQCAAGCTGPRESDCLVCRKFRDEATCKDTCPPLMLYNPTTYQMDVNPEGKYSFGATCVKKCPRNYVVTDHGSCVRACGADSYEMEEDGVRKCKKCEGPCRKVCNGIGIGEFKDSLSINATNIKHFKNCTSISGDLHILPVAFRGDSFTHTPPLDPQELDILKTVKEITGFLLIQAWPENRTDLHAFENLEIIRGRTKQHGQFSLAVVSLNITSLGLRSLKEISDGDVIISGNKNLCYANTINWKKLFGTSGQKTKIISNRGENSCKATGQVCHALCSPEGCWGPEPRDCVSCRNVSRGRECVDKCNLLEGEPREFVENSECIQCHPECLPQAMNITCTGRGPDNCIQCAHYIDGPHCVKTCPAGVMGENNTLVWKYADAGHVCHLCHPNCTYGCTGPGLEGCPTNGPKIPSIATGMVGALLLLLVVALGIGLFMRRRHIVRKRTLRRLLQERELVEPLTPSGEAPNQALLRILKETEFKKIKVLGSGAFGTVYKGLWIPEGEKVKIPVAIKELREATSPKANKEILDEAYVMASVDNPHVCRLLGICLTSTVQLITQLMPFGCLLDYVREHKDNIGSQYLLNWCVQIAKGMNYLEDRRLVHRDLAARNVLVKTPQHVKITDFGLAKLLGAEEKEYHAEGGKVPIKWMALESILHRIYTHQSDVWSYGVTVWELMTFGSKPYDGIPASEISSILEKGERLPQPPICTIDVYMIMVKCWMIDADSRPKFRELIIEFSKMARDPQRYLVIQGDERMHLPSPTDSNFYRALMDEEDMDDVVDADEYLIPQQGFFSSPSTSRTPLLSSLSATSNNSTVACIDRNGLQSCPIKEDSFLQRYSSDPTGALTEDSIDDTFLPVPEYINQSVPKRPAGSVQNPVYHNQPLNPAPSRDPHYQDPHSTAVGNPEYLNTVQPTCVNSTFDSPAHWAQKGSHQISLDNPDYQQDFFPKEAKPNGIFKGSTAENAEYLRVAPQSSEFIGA
# [3] = biological target: T2, Phospho-EGFR (Tyr1068) in H1975 C797S cells (CRISPR-edited EGFR C797S) (Homo sapiens, UniProt P00533, C797S/L858R/T790M); experiment: HTRF pEGFR/total EGFR in H1975 C797S cells; format: cell-based; details: ratio pEGFR/total EGFR, compound 3 hours
# T2 construct: host or cells: H1975 C797S (CRISPR-edited)
# T2 sequence (P00533 25-1210 T790M/C797S/L858R): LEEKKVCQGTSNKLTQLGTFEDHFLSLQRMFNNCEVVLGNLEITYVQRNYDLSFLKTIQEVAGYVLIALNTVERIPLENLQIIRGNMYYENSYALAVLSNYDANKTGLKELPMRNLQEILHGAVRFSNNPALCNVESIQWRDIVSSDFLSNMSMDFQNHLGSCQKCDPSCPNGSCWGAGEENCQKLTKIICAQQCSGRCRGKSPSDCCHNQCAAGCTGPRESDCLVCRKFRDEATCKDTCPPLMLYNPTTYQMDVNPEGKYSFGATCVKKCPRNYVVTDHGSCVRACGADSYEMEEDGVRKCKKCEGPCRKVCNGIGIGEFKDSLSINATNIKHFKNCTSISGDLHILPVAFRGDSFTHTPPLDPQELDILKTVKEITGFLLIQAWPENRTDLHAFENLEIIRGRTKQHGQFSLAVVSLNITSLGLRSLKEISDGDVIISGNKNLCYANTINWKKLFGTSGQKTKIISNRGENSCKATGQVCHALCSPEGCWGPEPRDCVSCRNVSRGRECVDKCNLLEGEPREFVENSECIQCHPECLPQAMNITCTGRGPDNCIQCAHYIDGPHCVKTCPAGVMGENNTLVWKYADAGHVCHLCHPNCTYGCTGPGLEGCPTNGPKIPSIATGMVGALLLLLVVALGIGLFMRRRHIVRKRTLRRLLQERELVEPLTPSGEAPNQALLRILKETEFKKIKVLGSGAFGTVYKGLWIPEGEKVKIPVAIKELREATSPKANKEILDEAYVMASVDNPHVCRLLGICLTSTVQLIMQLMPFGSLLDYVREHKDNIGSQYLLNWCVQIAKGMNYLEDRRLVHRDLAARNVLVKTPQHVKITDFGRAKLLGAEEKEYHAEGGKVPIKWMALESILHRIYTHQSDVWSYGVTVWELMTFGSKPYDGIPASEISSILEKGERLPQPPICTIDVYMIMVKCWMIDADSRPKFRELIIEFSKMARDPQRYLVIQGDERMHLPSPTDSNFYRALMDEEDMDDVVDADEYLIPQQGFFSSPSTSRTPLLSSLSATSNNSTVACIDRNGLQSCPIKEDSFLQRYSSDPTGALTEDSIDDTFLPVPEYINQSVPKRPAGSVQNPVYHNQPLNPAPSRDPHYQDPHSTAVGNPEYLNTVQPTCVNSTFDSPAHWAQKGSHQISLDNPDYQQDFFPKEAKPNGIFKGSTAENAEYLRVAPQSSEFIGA
# In short: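 Readout is the HTRF-measured Tyr1068 phospho-EGFR to total EGFR ratio, normalised to the 0 μM control as percent. Preceding this, CRISPR-edited H1975 C797S cells, plated 24 h earlier, were exposed 3 h to duplicate compound doses in medium with 0.1% DMSO, then lysed on a shaker.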
# [4] = biological target: T3, Phospho-EGFR (Tyr1068) in H1975 cells (Homo sapiens, UniProt P00533, L858R/T790M); experiment: HTRF pEGFR/total EGFR in H1975 cells; format: cell-based; details: ratio pEGFR/total EGFR, compound 3 hours
# T3 construct: host or cells: H1975
# T3 sequence (P00533 25-1210 T790M/L858R): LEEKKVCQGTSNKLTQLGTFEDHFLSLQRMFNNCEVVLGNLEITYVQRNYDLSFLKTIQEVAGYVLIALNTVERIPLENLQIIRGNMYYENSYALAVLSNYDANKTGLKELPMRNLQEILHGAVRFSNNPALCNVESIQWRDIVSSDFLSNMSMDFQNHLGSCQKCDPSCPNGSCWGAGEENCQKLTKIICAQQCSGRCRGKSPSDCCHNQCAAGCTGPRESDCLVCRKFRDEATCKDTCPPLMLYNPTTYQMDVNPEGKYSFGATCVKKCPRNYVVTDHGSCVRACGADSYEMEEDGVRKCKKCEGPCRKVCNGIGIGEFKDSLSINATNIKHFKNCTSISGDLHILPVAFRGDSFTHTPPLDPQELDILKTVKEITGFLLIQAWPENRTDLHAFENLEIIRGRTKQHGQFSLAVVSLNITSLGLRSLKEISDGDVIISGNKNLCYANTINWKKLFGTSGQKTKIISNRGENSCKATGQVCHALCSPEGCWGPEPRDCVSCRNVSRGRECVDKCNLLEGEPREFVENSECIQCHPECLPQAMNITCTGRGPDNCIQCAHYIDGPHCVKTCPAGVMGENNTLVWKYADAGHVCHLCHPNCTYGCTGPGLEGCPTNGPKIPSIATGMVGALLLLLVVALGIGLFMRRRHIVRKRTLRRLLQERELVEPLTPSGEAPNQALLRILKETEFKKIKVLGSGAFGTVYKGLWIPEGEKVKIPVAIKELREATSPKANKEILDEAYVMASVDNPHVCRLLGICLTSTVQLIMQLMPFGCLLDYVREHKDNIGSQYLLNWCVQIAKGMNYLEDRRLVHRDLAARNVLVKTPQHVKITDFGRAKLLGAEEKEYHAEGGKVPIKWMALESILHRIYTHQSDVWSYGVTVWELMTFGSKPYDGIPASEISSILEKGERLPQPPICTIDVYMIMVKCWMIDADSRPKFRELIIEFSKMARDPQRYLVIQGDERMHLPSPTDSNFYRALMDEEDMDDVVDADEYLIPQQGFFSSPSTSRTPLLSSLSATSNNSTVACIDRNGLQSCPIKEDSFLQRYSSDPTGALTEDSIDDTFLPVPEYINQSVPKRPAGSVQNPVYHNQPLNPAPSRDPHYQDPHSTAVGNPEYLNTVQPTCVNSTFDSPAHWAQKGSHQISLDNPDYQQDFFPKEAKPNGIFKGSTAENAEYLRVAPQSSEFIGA
# In short: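 Readout is the phospho-EGFR (Tyr1068) to total EGFR HTRF ratio, expressed relative to 0 μM control. Adhered H1975 cells were exposed to compound for 3 hours at 0.1% DMSO, duplicate wells, then lysed for 30 min at room temperature before two-wavelength fluorescence reading.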
IC50 [1] [µM],IC50 [2] [µM],IC50 [3] [µM],IC50 [4] [µM],Structure (SMILES)
> 3,< 1,> 3,1 to 3,"C#Cc1cc(=O)n([C@H]2CC[C@@H](NC(=O)CC(=O)O)CC2)c2nc(Nc3ccc(N4CCN(C)CC4)cc3)ncc12 [Example 99, 2-{[(1s,4s)-4-(5-Ethynyl-2-{[4-(4-methylpiperazin-1-yl)phenyl]amino}-7-oxopyrido[2,3-d]pyrimidin-8-yl)cyclohexyl]carbamoyl}acetic acid]"
1 to 3,1 to 10,< 0.5,< 0.5,"C#Cc1cc(=O)n([C@H]2CC[C@@H](NC(=O)CN(C)C)CC2)c2nc(Nc3ccc(N4CCN(C)CC4)cc3)ncc12 [Example 100, 2-(Dimethylamino)-N-[(1s,4s)-4-(5-ethynyl-2-{[4-(4-methylpiperazin-1-yl)phenyl]amino}-7-oxopyrido[2,3-d]pyrimidin-8-yl)cyclohexyl]acetamide]"
> 3,> 10,> 3,> 3,"C#Cc1cc(=O)n([C@H]2CC[C@@H](N(C)C(=O)CN(C)C)CC2)c2nc(Nc3ccccc3OC)ncc12 [Example 101, 2-(Dimethylamino)-N-methyl-N-[(1s,4s)-4-{5-ethynyl-2-[(2-methoxyphenyl)amino]-7-oxopyrido[2,3-d]pyrimidin-8-yl}cyclohexyl]acetamide]"
1 to 3,1 to 10,1 to 3,1 to 3,"C#Cc1c(C)c(=O)n([C@H]2CC[C@H](NC(C)=O)CC2)c2nc(Nc3ccc(N4CCN(C)CC4)cc3)ncc12 [Example 102, N-[(1r,4r)-4-(5-Ethynyl-6-methyl-2-{[4-(4-methylpiperazin-1-yl)phenyl]amino}-7-oxopyrido[2,3-d]pyrimidin-8-yl)cyclohexyl]acetamide]"
1 to 3,1 to 10,1 to 3,1 to 3,"C#Cc1c(C)c(=O)n([C@H]2CC[C@@H](NC(C)=O)CC2)c2nc(Nc3ccc(N4CCN(C)CC4)cc3)ncc12 [Example 103, N-[(1s,4s)-4-(5-ethynyl-6-methyl-2-{[4-(4-methylpiperazin-1-yl)phenyl]amino}-7-oxopyrido[2,3-d]pyrimidin-8-yl)cyclohexyl]acetamide]"
> 3,> 10,0.5 to 1,< 0.5,"C#Cc1cc(=O)n(C2CCNC2=O)c2nc(Nc3ccc(N4CCN(C)CC4)cc3)ncc12 (centres unmarked) [Example 104, 3-(5-ethynyl-2-{[4-(4-methylpiperazin-1-yl)phenyl]amino}-7-oxopyrido[2,3-d]pyrimidin-8-yl)pyrrolidin-2-one]"
> 3,> 10,1 to 3,1 to 3,"C#Cc1cc(=O)n(C2CCOC2)c2nc(Nc3ccc(N4CCN(C)CC4)cc3)ncc12 (centres unmarked) [Example 105, 5-ethynyl-2-{[4-(4-methylpiperazin-1-yl)phenyl]amino}-8-(oxolan-3-yl)pyrido[2,3-d]pyrimidin-7-one]"
> 3,> 10,1 to 3,1 to 3,"C#Cc1cc(=O)n(C2CCNC2)c2nc(Nc3ccc(N4CCN(C)CC4)cc3)ncc12 (centres unmarked) [Example 106, 5-ethynyl-2-{[4-(4-methylpiperazin-1-yl)phenyl]amino}-8-(pyrrolidin-3-yl)pyrido[2,3-]pyrimidin-7-one]"
> 3,> 10,1 to 3,> 3,"C#Cc1cc(=O)n(C2CCN(C)C2)c2nc(Nc3ccc(N4CCN(C)CC4)cc3)ncc12 (centres unmarked) [Example 107, 5-ethynyl-2-{[4-(4-methylpiperazin-1-yl)phenyl]amino}-8-(1-methylpyrrolidin-3-yl)pyrido[2,3-d]pyrimidin-7-one]"
> 3,> 10,> 3,> 3,"C#Cc1cc(=O)n(C2CNC(=O)C2)c2nc(Nc3ccc(N4CCN(C)CC4)cc3)ncc12 (centres unmarked) [Example 108, 4-(5-ethynyl-2-{[4-(4-methylpiperazin-1-yl)phenyl]amino}-7-oxopyrido[2,3-d]pyrimidin-8-yl)pyrrolidin-2-one]"
1 to 3,1 to 10,1 to 3,1 to 3,"C#Cc1c(C)c(=O)n(Cc2ccn[nH]2)c2nc(Nc3ccc(N4CCN(C)CC4)cc3)ncc12 [Example 109, 5-ethynyl-6-methyl-2-{[4-(4-methylpiperazin-1-yl)phenyl]amino}-8-(2H-pyrazol-3-ylmethyl)pyrido[2,3-d]pyrimidin-7-one]"
1 to 3,< 1,1 to 3,0.5 to 1,"C#Cc1c(C)c(=O)n(Cc2ccn(C)n2)c2nc(Nc3ccc(N4CCN(C)CC4)cc3)ncc12 [Example 110, 5-ethynyl-6-methyl-2-{[4-(4-methylpiperazin-1-yl)phenyl]amino}-8-[(1-methylpyrazol-3-yl)methyl]pyrido[2,3-d]pyrimidin-7-one]"
> 3,1 to 10,1 to 3,1 to 3,"C#Cc1c(C)c(=O)n(Cc2cnc[nH]2)c2nc(Nc3ccc(N4CCN(C)CC4)cc3)ncc12 [Example 111, 5-ethynyl-8-(3H-imidazol-4-ylmethyl)-6-methyl-2-{[4-(4-methylpiperazin-1-yl)phenyl]amino}pyrido[2,3-d]pyrimidin-7-one]"
> 3,1 to 10,1 to 3,1 to 3,"C#Cc1c(C)c(=O)n(Cc2ccnn2C)c2nc(Nc3ccc(N4CCN(C)CC4)cc3)ncc12 [Example 112, 5-ethynyl-6-methyl-2-{[4-(4-methylpiperazin-1-yl)phenyl]amino}-8-[(2-methylpyrazol-3-yl)methyl]pyrido[2,3-d]pyrimidin-7-one]"
1 to 3,1 to 10,1 to 3,1 to 3,"C#Cc1c(C)c(=O)n(Cc2ccno2)c2nc(Nc3ccc(N4CCN(C)CC4)cc3)ncc12 [Example 113, 5-ethynyl-6-methyl-2-{[4-(4-methylpiperazin-1-yl)phenyl]amino}-8-(1,2-oxazol-5-ylmethyl)pyrido[2,3-d]pyrimidin-7-one]"
1 to 3,< 1,1 to 3,1 to 3,"C#Cc1c(C)c(=O)n(Cc2ncco2)c2nc(Nc3ccc(N4CCN(C)CC4)cc3)ncc12 [Example 114, 5-ethynyl-6-methyl-2-{[4-(4-methylpiperazin-1-yl)phenyl]amino}-8-(1,3-oxazol-2-ylmethyl)pyrido[2,3-d]pyrimidin-7-one]"
1 to 3,< 1,1 to 3,0.5 to 1,"C#Cc1c(C)c(=O)n(Cc2cccnc2)c2nc(Nc3ccc(N4CCN(C)CC4)cc3)ncc12 [Example 115, 5-ethynyl-6-methyl-2-{[4-(4-methylpiperazin-1-yl)phenyl]amino}-8-(pyridin-3-ylmethyl)pyrido[2,3-d]pyrimidin-7-one]"
1 to 3,1 to 10,> 3,> 3,"C#Cc1c(C)c(=O)n(Cc2cccnc2)c2nc(Nc3ccc(N4CCN(C)CC4)cc3)ncc12 [Example 116, 5-ethynyl-6-methyl-2-{[4-(4-methylpiperazin-1-yl)phenyl]amino}-8-(pyridin-3-ylmethyl)pyrido[2,3-d]pyrimidin-7-one]"
> 3,> 10,> 3,> 3,"C#Cc1cc(=O)n(C2CC(=O)N(C)C2)c2nc(Nc3ccc(N4CCN(C)CC4)cc3)ncc12 (centres unmarked) [Example 117, 4-(5-ethynyl-2-{[4-(4-methylpiperazin-1-yl)phenyl]amino}-7-oxopyrido[2,3-d]pyrimidin-8-yl)-1-methylpyrrolidin-2-one]"
1 to 3,< 1,< 0.5,< 0.5,"C#Cc1cc(=O)n(Cc2ccn(C)n2)c2nc(Nc3ccc(N4CCN(C)CC4)cc3)ncc12 [Example 118, 5-ethynyl-2-{[4-(4-methylpiperazin-1-yl)phenyl]amino}-8-[(1-methylpyrazol-3-yl)methyl]pyrido[2,3-d]pyrimidin-7-one]"
> 3,> 10,0.5 to 1,0.5 to 1,"C#Cc1cc(=O)n(CC2CCNC2=O)c2nc(Nc3ccc(N4CCN(C)CC4)cc3)ncc12 (centres unmarked) [Example 119, 3-[(5-ethynyl-2-{[4-(4-methylpiperazin-1-yl)phenyl]amino}-7-oxopyrido[2,3-d]pyrimidin-8-yl)methyl]pyrrolidin-2-one]"
> 3,1 to 10,> 3,> 3,"C#Cc1cc(=O)[nH]c2nc(Nc3ccccc3OC)ncc12 [Example 120, 5-ethynyl-2-((2-methoxyphenyl)amino)pyrido[2,3-d]pyrimidin-7(8H)-one]"
1 to 3,< 1,> 3,1 to 3,C#Cc1c(-c2ccccc2Cl)c(=O)n(C)c2nc(Nc3ccc(N(C)CCN(C)C)cc3)ncc12 [Example 126]
